Source: US6593319B1, “Fusidic acid derivatives” (Leo Pharmaceutical Products, Ltd. A/S, priority 2001, dated 2003)
In brackets after ≈: the same amount, converted by molar mass.

Assays:
[1] = system: Strep. faecium Leo id. E119(P); test: MIC, agar diffusion method (European Pharmacopoeia 3rd Ed.); assay type: cell-based; settings: Penicillin resistant
Procedure: (§1) The antibacterial activity of some of these compounds relative to fusidic acid appears from Table 2 showing MIC values for compounds of the invention. The method used is recommended by the European Pharmacopoeia 3rd Ed. (1997) for testing the potency of antibiotics. It is an agar diffusion method where the same volume of the tested solution is added to cavities in agar. The inhibition zones are a function of the concentration of the fusidic acid analogue used. All assays are run with fusidic acid (1) as the reference substance. The results in Table 2 differ from those of Table 1 due to the different experimental methods used.

S. aureus Leoid CJ234(R) = test: as above; assay type: cell-based; settings: MRSA and Rifampicin resistant
Procedure: as §1

[2] = system: Strep. sp. Gr.B Leo id. EF6; test: as above; assay type: cell-based
Procedure: as §1

[3] = system: Strep. epidermis A. ATCC12228; test: as above; assay type: cell-based
Procedure: as §1

S. aureus Leo id. CJ232 = test: as above; assay type: cell-based; settings: S. aureus Leo id. CJ232, MRSA
Procedure: as §1

S. aureus ATCC2977 = test: as above; assay type: cell-based
Procedure: as §1

[4] = system: Strep. faecalis ATCC10541; test: as above; assay type: cell-based
Procedure: as §1

S. aureus ATCC6538P = test: as above; assay type: cell-based
Procedure: as §1

N. meningitidis/K1 = test: MIC, microtitter plates, liquid medium containing broth; assay type: cell-based
Procedure: (§2) In vitro investigations have evidenced high potency of compounds of the invention against several bacteria including staphylococci, streptococci, corynebacteriae and mycobacteriae. […] The biological tests are conducted on microtitter plates using liquid medium containing broth.

N. gonorrhoea/C1 = test: as above; assay type: cell-based
Procedure: as §2

Streptococcus - gr.G/59 = test: as above; assay type: cell-based
Procedure: as §2

S. aureus/22 DK = test: as above; assay type: cell-based; settings: FusS, MSSA
Procedure: as §2

S. aureus/ATCC 29213 = test: as above; assay type: cell-based; settings: FusS
Procedure: as §2

M. tuberculosis/R 498 = test: as above; assay type: cell-based
Procedure: as §2

S. aureus/54 USA-br = test: as above; assay type: cell-based; settings: FusR, MSSA
Procedure: as §2

Streptococcus - gr.C/68 = test: as above; assay type: cell-based
Procedure: as §2

S. aureus/1 Aus-pe = test: as above; assay type: cell-based; settings: FusS, MRSA
Procedure: as §2

Staphylococcus/379-2 = test: as above; assay type: cell-based; settings: Staphylococcus/379-2, coagulase negative, FusR
Procedure: as §2

Streptococcus - gr.B/61 = test: as above; assay type: cell-based
Procedure: as §2

[5] = system: E. faecalis/V583 P. Cour.; test: as above; assay type: cell-based; settings: VanR
Procedure: as §2

P. acnes/1060 = test: as above; assay type: cell-based
Procedure: as §2

Staphylococcus/291-2 = test: as above; assay type: cell-based; settings: Staphylococcus/291-2, coagulase negative, FusS
Procedure: as §2

C. diphteria/62001 = test: as above; assay type: cell-based
Procedure: as §2

[6] = system: Streptococcus - gr.A/67011; test: as above; assay type: cell-based
Procedure: as §2

[7] = Stability in ethanol solution (retained activity); assay type: physicochemical; settings: solution in ethanol stored at 0° C. for 1 month
[8] = read-out: MIC values (concentrations in μg/ml required for 90% inhibition)
[9] = Staphylococcus aureus, read-out: MIC values (concentrations in μg/ml required for 90% inhibition)
[10] = Enterococcus faecalis, read-out: MIC values (concentrations in μg/ml required for 90% inhibition)

In the case of `CC(C)=CCCC(C(=O)O)C1C(OC(=O)C2CCCCC2)CC2(C)C1CC(O)C1C3(C)CCC(O)C(C)C3CCC12C` [Compound 113, 16-Deacetoxy-16β-cyclohexylcarbonyloxy-17(S),20(S)-dihydrofusidic acid], the “MIC values (concentrations in μg/ml required for 90% inhibition)” value [1] is reported as over 64 µg/mL, the “MIC values (concentrations in μg/ml required for 90% inhibition)” value (S. aureus Leoid CJ234(R)) is reported as 16 µg/mL and the “MIC values (concentrations in μg/ml required for 90% inhibition)” value [2] is reported as 4 µg/mL. The “MIC values (concentrations in μg/ml required for 90% inhibition)” value [3] was over 64 µg/mL, the “MIC values (concentrations in μg/ml required for 90% inhibition)” value (S. aureus Leo id. CJ232) was 16 µg/mL and the “MIC values (concentrations in μg/ml required for 90% inhibition)” value (S. aureus ATCC2977) was 16 µg/mL. For the same molecule, the “MIC values (concentrations in μg/ml required for 90% inhibition)” value [4] was over 64 µg/mL and the “MIC values (concentrations in μg/ml required for 90% inhibition)” value (S. aureus ATCC6538P) was 16 µg/mL.
For `CC(=O)OC1CC2(C)C(CC(O)C3C4(C)CCC(O)C(C)C4CCC32C)C1C(CCC=C(C)C)C(=O)O` [Compound 101, 17(S),20(S)-Dihydrofusidic Acid], the “MIC values (concentrations in μg/ml required for 90% inhibition)” value (N. meningitidis/K1) was 1 µg/mL, the “MIC values (concentrations in μg/ml required for 90% inhibition)” value (N. gonorrhoea/C1) was 4 µg/mL and the “MIC values (concentrations in μg/ml required for 90% inhibition)” value (Streptococcus - gr.G/59) was 8 µg/mL. For the same molecule, the “MIC values (concentrations in μg/ml required for 90% inhibition)” value (S. aureus/22 DK) was 1 µg/mL, the “MIC values (concentrations in μg/ml required for 90% inhibition)” value (S. aureus/ATCC 29213; MSSA) was 1 µg/mL and the “MIC values (concentrations in μg/ml required for 90% inhibition)” value (M. tuberculosis/R 498) was 16 µg/mL. The “MIC values (concentrations in μg/ml required for 90% inhibition)” value (S. aureus/54 USA-br) was 8 µg/mL, the “MIC values (concentrations in μg/ml required for 90% inhibition)” value (Streptococcus - gr.C/68) was 4 µg/mL and the “MIC values (concentrations in μg/ml required for 90% inhibition)” value (S. aureus/1 Aus-pe) was 1 µg/mL. The “MIC values (concentrations in μg/ml required for 90% inhibition)” value (Staphylococcus/379-2) was 64 µg/mL, the “MIC values (concentrations in μg/ml required for 90% inhibition)” value (Streptococcus - gr.B/61) was over 64 µg/mL and the “MIC values (concentrations in μg/ml required for 90% inhibition)” value [5] was 16 µg/mL. The “MIC values (concentrations in μg/ml required for 90% inhibition)” value (P. acnes/1060) was 0.5 µg/mL, the “MIC values (concentrations in μg/ml required for 90% inhibition)” value (Staphylococcus/291-2) was 1 µg/mL and the “MIC values (concentrations in μg/ml required for 90% inhibition)” value (C. diphteria/62001) was 0.063 µg/mL. The “MIC values (concentrations in μg/ml required for 90% inhibition)” value [6] was 64 µg/mL, the retained initial activity [7] was over 80% and the “MIC values (concentrations in μg/ml required for 90% inhibition)” value [1] was 1.2 µg/mL. The “MIC values (concentrations in μg/ml required for 90% inhibition)” value (S. aureus Leoid CJ234(R)) was 0.001 µg/mL, the “MIC values (concentrations in μg/ml required for 90% inhibition)” value [2] was 3.5 µg/mL and the “MIC values (concentrations in μg/ml required for 90% inhibition)” value [3] was 0.001 µg/mL. The “MIC values (concentrations in μg/ml required for 90% inhibition)” value (S. aureus Leo id. CJ232) was 0.003 µg/mL, the “MIC values (concentrations in μg/ml required for 90% inhibition)” value (S. aureus ATCC2977) was 0.001 µg/mL and the “MIC values (concentrations in μg/ml required for 90% inhibition)” value [4] was 3.7 µg/mL. For the same molecule, the “MIC values (concentrations in μg/ml required for 90% inhibition)” value (S. aureus ATCC6538P) was 0.002 µg/mL.
In the case of `COCO[C@H]1C[C@@]2(C)[C@@H](C[C@@H](O)[C@H]3[C@@]4(C)CC[C@@H](O)[C@@H](C)[C@@H]4CC[C@@]32C)[C@H]1[C@H](CCC=C(C)C)C(=O)O` [Compound 128, 16-Deacetoxy-16β-methoxymethoxy-17(S),20(S)-dihydrofusidic acid], the “MIC values (concentrations in μg/ml required for 90% inhibition)” value [1] is reported as 16 µg/mL, the “MIC values (concentrations in μg/ml required for 90% inhibition)” value (S. aureus Leoid CJ234(R)) is reported as over 64 µg/mL and the “MIC values (concentrations in μg/ml required for 90% inhibition)” value [2] is reported as 16 µg/mL. The “MIC values (concentrations in μg/ml required for 90% inhibition)” value [3] was 0.5 µg/mL, the “MIC values (concentrations in μg/ml required for 90% inhibition)” value (S. aureus Leo id. CJ232) was over 64 µg/mL and the “MIC values (concentrations in μg/ml required for 90% inhibition)” value (S. aureus ATCC2977) was 0.19 µg/mL. For the same molecule, the “MIC values (concentrations in μg/ml required for 90% inhibition)” value [4] was 16 µg/mL and the “MIC values (concentrations in μg/ml required for 90% inhibition)” value (S. aureus ATCC6538P) was 0.26 µg/mL.
In the case of `CC(=O)O[C@H]1C[C@@]2(C)[C@@H](C[C@@H](O)[C@H]3[C@@]4(C)CC[C@@H](O)[C@@H](C)[C@@H]4CC[C@@]32C)/C1=C(\CCC=C(C)C)C(=O)O` [Fusidic acid (1), Fusidic acid], the MIC (N. meningitidis/K1; Neisseria meningitidis, read-out: MIC values (concentrations in μg/ml required for 90% inhibition)) is reported as 0.25 µg/mL (≈ 0.484 µM), the MIC (N. gonorrhoea/C1; [8]) is reported as 1 µg/mL (≈ 1.94 µM) and the MIC (Streptococcus - gr.G/59; [8]) is reported as 4 µg/mL (≈ 7.74 µM). The MIC (S. aureus/22 DK; [9]) was 0.5 µg/mL (≈ 0.968 µM), the MIC (S. aureus/ATCC 29213; Staphylococcus aureus, ATCC 29213 / MSSA, read-out: MIC values (concentrations in μg/ml required for 90% inhibition)) was 1 µg/mL (≈ 1.94 µM) and the MIC (M. tuberculosis/R 498; Mycobacterium tuberculosis, read-out: MIC values (concentrations in μg/ml required for 90% inhibition)) was over 16 µg/mL. It also gave an MIC (S. aureus/54 USA-br; [9]) of 8 µg/mL (≈ 15.5 µM), an MIC (Streptococcus - gr.C/68; [8]) of 2 µg/mL (≈ 3.87 µM) and an MIC (S. aureus/1 Aus-pe; [9]) of 1 µg/mL (≈ 1.94 µM). The MIC (Staphylococcus/379-2; [8]) was 64 µg/mL (≈ 124 µM), the MIC (Streptococcus - gr.B/61; [8]) was 32 µg/mL (≈ 61.9 µM) and the MIC [5, 10] was 16 µg/mL (≈ 31 µM). For the same molecule, the MIC (P. acnes/1060; Cutibacterium acnes, read-out: MIC values (concentrations in μg/ml required for 90% inhibition)) was 0.125 µg/mL (≈ 0.242 µM), the MIC (Staphylococcus/291-2; [8]) was 1 µg/mL (≈ 1.94 µM) and the MIC (C. diphteria/62001; [8]) was 0.063 µg/mL (≈ 0.122 µM). The MIC [6, 8] was 16 µg/mL (≈ 31 µM), the retained initial activity [7] was “about 70%” and the MIC ([1]; Enterococcus faecium, read-out: MIC values (concentrations in μg/ml required for 90% inhibition)) was 2.7 µg/mL (≈ 5.23 µM). For the same molecule, the MIC (S. aureus Leoid CJ234(R); [9]) was 0.01 µg/mL (≈ 0.0194 µM), the MIC [2, 8] was 4.9 µg/mL (≈ 9.48 µM) and the MIC [3, 8] was 0.01 µg/mL (≈ 0.0194 µM). For the same molecule, the MIC (S. aureus Leo id. CJ232; [9]) was 0.012 µg/mL (≈ 0.0232 µM), the MIC (S. aureus ATCC2977; [9]) was 0.01 µg/mL (≈ 0.0194 µM) and the MIC [4, 10] was 4.9 µg/mL (≈ 9.48 µM). For the same molecule, the MIC (S. aureus ATCC6538P; [9]) was 0.013 µg/mL (≈ 0.0252 µM).
